Type: physicochemical
Conditions: pH 3
Experimental: The amount of anthocyanin was confirmed using a spectrophotometer to confirm the stability of the complex prepared in Example 1 over time. 40 ml of the anthocyanin-alginic acid complex was centrifuged at 13000 rpm for 30 minutes, and the precipitate was dispersed in PBS (pH 3 or pH 7.4). In addition, anthocyanin was prepared by dissolving thereof in PBS (pH 3 or pH 7.4). The absorbance of the complex and anthocyanin dispersed in PBS (pH 3 or pH 7.4) was measured with a spectrophotometer at each wavelength band of 513 nm or 520 nm, respectively, and the change in the absorbance value of anthocyanin was observed.

Q: With anthocyanin as the substance, how does the “stability (in words)” value read?
A: stable

Source: patent US12507720B2, “Use of anthocyanin-anionic polysaccharide complex for preventing or treating influenza virus A infection” (JBKLAB CO., LTD., priority 2019, dated 2025)
